According to US7629355B2 (priority 2003, dated 2009):
Where a name gives a salt, the structure may show the parent alone. Read-outs that look alike come from different tables or passages of the source.

Tests used:
opiate receptor = opiate receptor assay of Pert et al.; format: binding
Description: (Raven Press, New York, N.Y.), at pp. 33-43. […] Int. Pharmacodyn.

[1] = induced Straub tail method (antagonist activity); conditions: for Antagonism (μmol/kg) Straub Tail: in vivo
[2] = reversal of morphine-induced analgesia in the tail flick assay; conditions: reversal of analgesia induced by morphine
μ receptor [3] = target: T1, μ receptor (Homo sapiens, UniProt P35372); assay: biochemical; format: biochemical
T1 sequence (P35372 whole entry): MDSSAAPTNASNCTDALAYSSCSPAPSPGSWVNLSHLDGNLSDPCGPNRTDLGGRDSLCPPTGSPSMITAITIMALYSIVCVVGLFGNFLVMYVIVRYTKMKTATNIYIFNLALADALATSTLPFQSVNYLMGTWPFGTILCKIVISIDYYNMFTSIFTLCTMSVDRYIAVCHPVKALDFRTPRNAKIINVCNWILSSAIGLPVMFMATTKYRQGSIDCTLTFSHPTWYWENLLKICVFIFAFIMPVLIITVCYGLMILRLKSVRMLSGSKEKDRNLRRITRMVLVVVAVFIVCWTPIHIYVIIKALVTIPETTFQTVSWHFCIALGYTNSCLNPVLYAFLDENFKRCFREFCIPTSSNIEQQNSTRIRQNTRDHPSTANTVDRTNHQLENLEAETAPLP

δ receptor [4] = target: T2, δ receptor (Homo sapiens, UniProt P41143); assay: biochemical; format: biochemical
T2 construct: expressed in transfected cells; host or cells: CHO cells
T2 sequence (P41143 whole entry): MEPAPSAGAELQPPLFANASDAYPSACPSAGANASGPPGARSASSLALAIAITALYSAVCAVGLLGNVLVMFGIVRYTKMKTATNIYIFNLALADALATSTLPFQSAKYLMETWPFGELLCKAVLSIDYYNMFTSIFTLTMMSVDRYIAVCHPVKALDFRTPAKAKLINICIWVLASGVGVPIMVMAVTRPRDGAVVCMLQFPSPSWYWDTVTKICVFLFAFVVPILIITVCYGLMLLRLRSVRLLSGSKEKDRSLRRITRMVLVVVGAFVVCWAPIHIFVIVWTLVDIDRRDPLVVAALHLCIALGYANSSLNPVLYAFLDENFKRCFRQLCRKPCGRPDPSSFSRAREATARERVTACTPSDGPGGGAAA

κ receptor [5] = target: T3, κ receptor (Homo sapiens, UniProt P41145); assay: biochemical; format: biochemical
T3 construct: expressed in transfected cells; host or cells: CHO cells
T3 sequence (P41145 whole entry): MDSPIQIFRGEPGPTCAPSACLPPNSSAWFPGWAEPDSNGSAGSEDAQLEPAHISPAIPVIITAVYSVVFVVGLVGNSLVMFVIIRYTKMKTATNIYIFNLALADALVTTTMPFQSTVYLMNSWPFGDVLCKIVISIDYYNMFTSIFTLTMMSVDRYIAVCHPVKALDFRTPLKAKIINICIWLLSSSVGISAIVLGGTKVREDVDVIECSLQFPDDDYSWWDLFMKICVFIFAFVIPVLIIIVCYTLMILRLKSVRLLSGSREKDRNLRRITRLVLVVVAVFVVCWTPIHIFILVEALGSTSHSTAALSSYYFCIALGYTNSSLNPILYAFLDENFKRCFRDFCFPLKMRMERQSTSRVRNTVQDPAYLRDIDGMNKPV

μ receptor [6] = target: T1, μ receptor; assay: biochemical; format: binding
δ receptor [7] = target: T2, δ receptor; assay: biochemical; format: binding
κ receptor [8] = target: T3, κ receptor; assay: biochemical; format: binding
μ receptor [9] = target: T1, μ receptor; assay: pA2 analysis of antagonist activity against DAMGO dose response curve; format: biochemical
[10] = in animals; cited from earlier work
[11] = mouse jump test (physical dependence); format: in vivo; conditions: 30 min after 100 mg/kg naloxone on day 4; test compound ip days 1-3
Method: Antagonist activity, considered a measure of nonaddictiveness, was measured by the opiate receptor assay of Pert et al. (1974) Mol. Pharmacol. 10:868. Antagonist activity was also measured using the induced Straub tail method as described by DeGraw et al. (1978) J. Med Chem. 21:415, and Blumberg et al. (1973) Advances in Chemical Psychopharmacology, Vol. 8, M. Braudy et al. eds. (Raven Press, New York, N.Y.), at pp. 33-43. A direct and simple assay measuring physical dependence is the mouse jump test described by Saelens et al. (1971) Arch. Int. Pharmacodyn. 190:213.
Physical dependence, a more direct measure of non-addictive properties than antagonist activity, was evaluated using the mouse jump test. Mice were injected intraperitoneally 5 times on day 1 with increasing doses of test compound ranging from 8-100 mg/kg body weight. On days 2 and 3 the mice were given 100 mg/kg 4 times. On day 4 all mice received 100 mg/kg of the antagonist naloxone in a single dose. The mice were then caged for 30 min, and a record was made of the number jumping during this time.

[12] = +NaCl, read-out: Opiate Receptor Inhibition (IC50, nM) +NaCl
[13] = −NaCl, read-out: Opiate Receptor Inhibition (IC50, nM) −NaCl

With `CC(C1CC1)N1CCC23c4c5ccc(O)c4OC2C(O)C=CC3C1C5` (mixture of isomers) (as salt: salt) [N-α-methylcyclopropylmethyl-normorphine (mixture)] [N-[(1R,S)-1-Cyclopropylethyl]-Normorphine] the melting point was 248 to 250 °C.

For `CC(C1CC1)N1CCC23c4c5ccc(O)c4OC2C(O)C=CC3C1C5` (mixture of isomers) [N-α-methylcyclopropylmethyl-normorphine (mixture)] [N-[(1R,S)-1-Cyclopropylethyl]-Normorphine], the IC50 (opiate receptor; [12]) was 6 nM, the IC50 (opiate receptor; [13]) was 3 nM and the “antagonist potency relative to nalorphine” value ([1]; Straub tail method) was “about one-fourth”. For the same compound, the “Antagonism (μmol/kg) Straub Tail” value [1] was 4.5 µmol/kg.

In the case of `CC(C1CC1)N1CCC23c4c5ccc(O)c4OC2C(O)C=CC3C1C5` (single isomer, unassigned; diastereomer b) [N-α-methylcyclopropylmethyl-normorphine (S isomer), N-methylcyclopropylmethyl-normorphine (diastereomer B)], the IC50 (opiate receptor; [13]) is reported as 0.23 nM, the melting point is reported as 209 to 210 °C and the “Antagonism (μmol/kg) Tail Flick” value [2] is reported as over 213 µmol/kg.

With `C[C@H]1[C@H]2Cc3ccc(O)cc3[C@]1(C)CCN2CC1CC1` [Cyclazocine, reference compound] the “μ % Stim” value (μ receptor [3]) was 33 ± 18%, the EC50 (δ receptor [4]) was 2.9 ± 1.9 nM and the “δ % Stim” value (δ receptor [4]) was 82 ± 9%. The EC50 (κ receptor [5]) was 0.8 ± 0.2 nM and the “κ % Stim” value (κ receptor [5]) was 80%.

For `C[C@@H](NC(=O)[C@@H](N)Cc1ccc(O)cc1)C(=O)NCC(=O)N(C)[C@@H](Cc1ccccc1)C(=O)NCCO` [DAMGO, [D-Ala^2, NMePhe^4, Gly^5-ol]-enkephalin], the “κ % Stim” value (κ receptor [5]) was 62%.

For `CCC(C)N1CCC23c4c5ccc(O)c4OC2C(O)C=CC3C1C5` [N-sec-butyl normorphine (R), reference compound], the IC50 (opiate receptor; [12]) was 110 nM, the IC50 (opiate receptor; [13]) was 60 nM and the “Antagonism (μmol/kg) Straub Tail” value [1] was 16.2 µmol/kg.

With `CCC(C)N1CCC23c4c5ccc(O)c4OC2C(O)C=CC3C1C5` [N-sec-butyl normorphine (S), reference compound] the IC50 (opiate receptor; [12]) was 62 nM, the IC50 (opiate receptor; [13]) was 28 nM and the “Antagonism (μmol/kg) Straub Tail” value [1] was 7.4 µmol/kg.

For `C[C@H](C1CC1)N1CC[C@]23c4c5ccc(O)c4O[C@H]2[C@@H](O)C=C[C@H]3[C@H]1C5` [compound 1, N-[(1R)-1-cyclopropylethyl]-normorphine], the “affinity in the opiate assay relative to N-sec-butyl-normorphine” value (opiate receptor; relative to N-sec-butyl-normorphine) was “about 122 times”, the “affinity in the opiate assay relative to morphine” value (opiate receptor; relative to morphine) was “over 43 times” and the IC50 (opiate receptor; [13]) was 7 nM. It also gave a Ki (μ receptor [6]) of 0.35 ± 0.06 nM, a Ki (δ receptor [7]) of 3.97 ± 0.98 nM and a Ki (κ receptor [8]) of 0.43 ± 0.11 nM. For the same compound, the EC50 (μ receptor [3]) was over 10 µM, the “functional character at the μ receptor” value (μ receptor [3]) was “pure antagonist” and the EC50 (δ receptor [4]) was 39.6 ± 6.3 nM. For the same compound, the “functional character at δ” value (δ receptor [4]) was “partial agonist”, the “δ % Stim” value (δ receptor [4]) was 22 ± 6% and the EC50 (κ receptor [5]) was 15.2 ± 2.5 nM. For the same compound, the “functional character at κ” value (κ receptor [5]) was “partial agonist”, the “κ % Stim” value (κ receptor [5]) was 63 ± 1% and the Kb (μ receptor [9]) was 1.43 ± 0.16 nM. The Slope (μ receptor [9]; n=6) was −1.04, the pA2 (μ receptor [9]; n=6) was 8.84±0.06 and the respiratory depression [10] was “free of respiratory depression”. The therapeutic index [10] was “high therapeutic index” and the “Antagonism (μmol/kg) Tail Flick” value [2] was over 213 µmol/kg.

For `CN1CC[C@]23c4c5ccc(O)c4O[C@H]2[C@@H](O)C=C[C@H]3[C@H]1C5` [morphine], the “number of mice jumping” value [11] was 10/10, the “Antagonism (μmol/kg) Straub Tail” value [1] was 1 µmol/kg and the “Antagonism (μmol/kg) Tail Flick” value [2] was 2 µmol/kg.

For `C=CCN1CC[C@]23c4c5ccc(O)c4O[C@H]2[C@@H](O)C=C[C@H]3[C@H]1C5` [nalorphine, reference compound], the IC50 (opiate receptor; [12]) was 6 nM, the IC50 (opiate receptor; [13]) was 2 nM and the “Antagonism (μmol/kg) Tail Flick” value [2] was 2.04 µmol/kg.

With (−)SKF 10,047 the “κ % Stim” value (κ receptor [5]) was 49 ± 13% and the EC50 (κ receptor [5]; read-out: κ EC50) was 5.38 ± 2.3 nM.

In the case of “[D-Pen^2,D-Pen^5]-enkephalin [DPDPE, reference compound]”, the “κ % Stim” value (κ receptor [5]) is reported as 77%.
